According to EP0426075A1, “Benzylpyrrolidine derivatives as dopamine agonists” (SYNTEX (U.S.A.) INC., priority 1989, dated 1991):

How the values were obtained:
DA2 receptor = experiment: Goldberg in situ femoral arterial preparation (DA2 assay), intra-arterial injection; type: in vivo, dog; conditions: optimal response of test compound divided by optimal response of DPDA
Procedure: (§1) The compounds were subsequently tested following intra-arterial administration in an in situ renal and femoral arterial preparation in the dog, as developed by L.I. Goldberg, to test for DA1 and DA2 dopamine activity, respectively. Details of the methodology are provided in the European J. Pharmacol. 89 :137, 1983, as well as in Hypertension 6 :1-25, 1984.
as §1, with “compounds of this invention” for “compounds”, “were” for “were subsequently”, “Pharmacol. ,” for “Pharmacol.”, “Hypertension ,” for “Hypertension”, “1984. J. L. McNay, L. I. Goldberg JPET 151 :23-31, 1966.” for “1984.”
(§2) The compounds were injected directly into the renal or femoral artery for analysis of DA, or DA2 activity, respectively. […] The compounds were tested for relative activity in comparison to the standard DA, agonist, dopamine or the standard DA2 agonist, DPDA. Specific DA, or DA2 activity of the tested compound was verified by Sch 23390 or domperidone blockade.
(§3) Adult mongrel dogs of either sex (12-20 kg) were anesthetized with pentobarbital sodium (33 mg/kg, i.v.). The animals were intubated and ventilated with room air using a Harvard respirator.
as §1, with “compounds of this invention” for “compounds”, “were” for “were subsequently”, “Pharmacol. ,” for “Pharmacol.”, “Hypertension ,” for “Hypertension”, “1984. J. L. McNay, L. I. Goldberg JPET 151 :23-31, 1966” for “1984.”
as §2, with “of DA1” for “of DA,”, “standard DA1” for “standard DA,”
The thoracic aorta was catheterized with a Millar micro-tip (size 5F) transducer via the right carotid artery for blood pressure monitoring. The right external jugular vein was cannulated with PE-160 tubing for supplemental pentobarbital administration. The left femoral artery was isolated and an electromagnetic flowprobe of the appropriate size (8-11 mm circ.) was placed around the artery and connected to a Caroline Medical electromagnetic flowmeter. Surface ECG leads were placed subcutaneously on the chest and limbs to monitor heart rate. A 25 gauge 3/4" needle bent 90` , 4 mm from the tip, was placed in the femoral artery proximal to the probe and connected to an infusion pump delivering saline at a constant rate of 1 ml/min. Following a saline and bradykinin challenge (0.02 to 0.04 nmoles, in 0.2 ml saline, i.a.), a dose response curve for DPDA was generated by injecting 4-fold increasing doses i.a. ranging from 3 to 48 nmoles in 0.2 ml saline. Test compounds were injected similarly in 4-fold increasing doses up to 3000 nmoles. Compounds were then repeated at their optimal dose following domperidone pretreatment (10-40 Ilg/kg, iv).
Efficacy ratios were determined by division of the optimal response of the test compound by the optimal response of the standard agent. The optimal dose of compound was defined as that which produced a maximum increase in blood flow before causing a change in systemic blood pressure. ED50 values were derived by regression analysis from individually generated dose response curves. Potency ratios were the quotients calculated from the division of the standard agent EDso by the ED50 of the test compound. […] If the inhibition of the test compound was similar to that of dopamine or DPDA, the compound was considered to be a DA, or DA2 agonist, respectively.

DA1 receptor = experiment: Goldberg in situ renal arterial preparation (renal DA1 assay), intra-arterial injection; type: in vivo, dog; conditions: optimal response of test compound divided by optimal response of dopamine
Procedure: as §1
as §1, with “compounds of this invention” for “compounds”, “were” for “were subsequently”, “Pharmacol. ,” for “Pharmacol.”, “Hypertension ,” for “Hypertension”, “1984. J. L. McNay, L. I. Goldberg JPET 151 :23-31, 1966.” for “1984.”
as §2, §3
as §1, with “compounds of this invention” for “compounds”, “were” for “were subsequently”, “Pharmacol. ,” for “Pharmacol.”, “Hypertension ,” for “Hypertension”, “1984. J. L. McNay, L. I. Goldberg JPET 151 :23-31, 1966” for “1984.”
as §2, with “of DA1” for “of DA,”, “standard DA1” for “standard DA,”
The abdominal aorta was catheterized with a Millar micro-tip (size: 5F) transducer via the right femoral artery for blood pressure monitoring. The right femoral vein was cannulated with PE-160 tubing for iv saline infusion, as well as supplemental pentobarbital administration. The left renal artery was isolated through a lateral abdominal incision. An electromagnetic flowprobe of the appropriate size (8-11 mm circ.) was placed around the artery and connected to a Carolina Medical electromagnetic flowmeter. Surface ECG leads were placed subcutaneously on the chest and limbs to monitor heart rate. A 25 gauge 3/4" needle bent 90°, 4 mm from the tip, was placed in the renal artery proximal to the probe and connected to an infusion pump delivering saline at a constant rate of 1 ml/min. Following a saline and 1µg norepinephrine (NE) challenge, both given in an injection volume of 0.2 ml, the animal was treated with a phenoxybenzamine, 0.5 mg/kg/min i.a., infusion for a duration of 10-20 minutes as necessary to achieve a complete blockade of the NE challenge. Blood pressure was maintained by supplemental saline infusion (10-20 ml/kg, iv). Bradykinin, a standard for nonspecific vasodilation, was given at 0.60 nmole doses, in 0.2 ml saline, i.a., prior to generating a dose response curve for dopamine in which 4-fold increasing doses, ranging from 3 to 48 nmoles, were injected i.a. in 0.2 ml of saline (i.a. bolus). Test compounds were injected similarly in 4-fold increasing doses up to a maximum of 3000 nmoles. Compounds were then repeated at their optimal dose following Sch 23390 pretreatment (0.05 - 0.10 mg/kg, iv).
Efficacy ratios were determined by division of the optimal response of the test compound by the optimal response of the standard agent.

Structure (SMILES) | Relative Efficacy to DA2 Standard (DA2 receptor) | Relative Efficacy to DA1 Standard (DA1 receptor)
CCCN(CCC)CCc1ccc(O)c(O)c1 [DPDA, di-propyl dopamine, reference compound] | 1.00 | 
Cl.NCCc1ccc(O)c(O)c1 [Dopamine, 4-(2-aminoethyl)-1,2-Benzenediol hydrochloride] |  | 1.00
